Experiment: wn = mass fraction of the nth substance listed
Details: 313.13 K, Liquid, Vibrating tube method

CC(C)(N)CO [2-amino-2-methylpropan-1-ol] + O
Details | mass density [kg/m3]
500 kPa, w1 = 0.1997 | 989.5
995 kPa, w1 = 0.2821 | 988.9
998 kPa, w1 = 0.4002 | 985.4
999 kPa, w1 = 0.4976 | 978.1
1000 kPa, w1 = 0.1997 | 989.8
2000 kPa, w1 = 0.1997 | 990.1
2002 kPa, w1 = 0.2821 | 989.2
2006 kPa, w1 = 0.4002 | 985.8
2014 kPa, w1 = 0.4976 | 978.5
2993 kPa, w1 = 0.2821 | 989.6
2995 kPa, w1 = 0.4002 | 986.2
3000 kPa, w1 = 0.1997 | 990.5
3001 kPa, w1 = 0.4976 | 978.9
3995 kPa, w1 = 0.4002 | 986.6
4000 kPa, w1 = 0.1997 | 990.9
4001 kPa, w1 = 0.2821 | 990
4001 kPa, w1 = 0.4976 | 979.3
4995 kPa, w1 = 0.2821 | 990.4
4999 kPa, w1 = 0.4002 | 986.9
4999 kPa, w1 = 0.4976 | 979.7
5000 kPa, w1 = 0.1997 | 991.2
5999 kPa, w1 = 0.4002 | 987.3
6000 kPa, w1 = 0.1997 | 991.6
6000 kPa, w1 = 0.4976 | 980.2
6005 kPa, w1 = 0.2821 | 990.8
6987 kPa, w1 = 0.2821 | 991.1
6994 kPa, w1 = 0.4002 | 987.7
6995 kPa, w1 = 0.4976 | 980.6
7000 kPa, w1 = 0.1997 | 992
7986 kPa, w1 = 0.4002 | 988.1
7991 kPa, w1 = 0.2821 | 991.5
8000 kPa, w1 = 0.1997 | 992.4
8003 kPa, w1 = 0.4976 | 980.9
8992 kPa, w1 = 0.4002 | 988.5
8997 kPa, w1 = 0.2821 | 991.9
8997 kPa, w1 = 0.4976 | 981.4
9007 kPa, w1 = 0.1997 | 992.8
9992 kPa, w1 = 0.4002 | 988.9
9995 kPa, w1 = 0.2821 | 992.3
9999 kPa, w1 = 0.4976 | 981.8
10002 kPa, w1 = 0.1997 | 993.2
10989 kPa, w1 = 0.4976 | 982.1
10990 kPa, w1 = 0.2821 | 992.6
10993 kPa, w1 = 0.4002 | 989.2
11000 kPa, w1 = 0.1997 | 993.6
11991 kPa, w1 = 0.2821 | 993
11992 kPa, w1 = 0.4002 | 989.6
11996 kPa, w1 = 0.4976 | 982.6
12000 kPa, w1 = 0.1997 | 994
12982 kPa, w1 = 0.2821 | 993.4
13000 kPa, w1 = 0.1997 | 994.4
13002 kPa, w1 = 0.4002 | 990
13006 kPa, w1 = 0.4976 | 983
13991 kPa, w1 = 0.2821 | 993.8
13999 kPa, w1 = 0.4002 | 990.4
14000 kPa, w1 = 0.1997 | 994.7
14001 kPa, w1 = 0.4976 | 983.4
14997 kPa, w1 = 0.2821 | 994.2
14999 kPa, w1 = 0.4002 | 990.8
15001 kPa, w1 = 0.4976 | 983.8
15002 kPa, w1 = 0.1997 | 995.1
15990 kPa, w1 = 0.2821 | 994.5
15992 kPa, w1 = 0.4002 | 991.2
15992 kPa, w1 = 0.4976 | 984.2
